Broadly, the IC50 is the concentration that inhibits the measured activity by half. A higher IC50 goes with a need for much substance.

Data on 21 molecules can be found in patent publication US9073918B2, “Pyrazolo[4,3-b]pyridine-7-amine inhibitors of ALK5” (Takeda Pharmaceutical Company Limited, priority 2010, dated 2015).

Each structure is given as a SMILES string.

One test deals with T1, cellular TGF-β R1 ALK5 (Homo sapiens, UniProt P36897).
T1 construct: host or cells: CellSensor SBE-bla HEK 293T
T1 sequence (P36897 34-503): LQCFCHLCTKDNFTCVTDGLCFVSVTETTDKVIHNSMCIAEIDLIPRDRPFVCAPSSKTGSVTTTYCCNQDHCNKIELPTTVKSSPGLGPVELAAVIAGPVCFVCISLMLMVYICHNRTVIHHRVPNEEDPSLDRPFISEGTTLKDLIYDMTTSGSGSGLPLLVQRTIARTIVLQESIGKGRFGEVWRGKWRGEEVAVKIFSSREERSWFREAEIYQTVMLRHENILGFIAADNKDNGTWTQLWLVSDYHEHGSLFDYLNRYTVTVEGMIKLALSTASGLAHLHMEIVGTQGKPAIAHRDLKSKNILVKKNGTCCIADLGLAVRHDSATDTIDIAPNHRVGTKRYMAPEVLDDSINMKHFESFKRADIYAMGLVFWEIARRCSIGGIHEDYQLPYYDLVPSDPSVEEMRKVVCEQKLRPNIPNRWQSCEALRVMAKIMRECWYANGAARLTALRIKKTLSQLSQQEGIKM
The test can be described thus: Cellular inhibition of ALK5 (CellSensor SBE-bla HEK 293T beta-lactamase reporter). It is filed as cell-based. The following applies: cellular inhibition of ALK5, SBE-bla HEK 293T cells, TGFb-1 stimulated 5 hours; average where measured in multiple experiments. The source says:
Test compounds were screened for cellular TGF-β R1 ALK5 inhibition by use of a CellSensor® SBE-bla HEK 293T (K1550, Invitrogen Corp. Madison, Wis.) cell line. The CellSensor® SBE-bla HEK 293T cell line contains a beta-lactamase reporter gene under control of the SBE response element stably integrated into HEK 293T cells. The SBE response element is a DNA region that binds activated SMADs which results from the binding of TGF-β to, and subsequent activation of ALK5.
The assay procedure was as follows:
CellSensor® SBE-bla HEK 293T cell line were plated at 12,000 cells/well in 40 ul DMEM plus 5 ug/ml blasticidin into 384-well, black-wall, clear-bottom assay plate and incubated overnight.
The following day 5 uL of 10×, 2.5-fold serially diluted test compounds in DMSO were added into cells to a final compound concentration of 1× and DMSO concentration of 0.5%. Assay was incubated for 1 hour at 37° C., 5% CO2, 5 uL of 100 ng/mL TGFb-1 was then added to activate ALK5 and incubated for 5 hours at 37° C., 5% CO2, 10 uL of detector, LiveBLAzer FRET B/G substrate (CCF4-AM, Invitrogen Corp. Madison, Wis.) was added to cells and incubated for 2 hours at RT. Assay was measured using Spectramax, a bottom-read fluorescence plate reader, at excitation setting of 405 nm and emission settings of 460 nm and 530 nm.
Response is defined as the ratio of background corrected 460 nm emission values/background corrected 530 nm emission values. Cellular activity was defined as percent inhibition of uninhibited ALK5 activity (wells treated with DMSO+TGF-β). The percent inhibition of cellular ALK5 at a given compound concentration is defined as: 100%×[1−(response compound+TGF-β/response DMSO+TGF-β)] where response compound+TGF-β is defined as the activity in the presence of test compound and response DMSO+TGF-β is defined as the uninhibited cellular ALK5 activity. The pIC50 value (negative log of the molar concentration of the compound that produces 50% inhibition) of a test compound is calculated by non-linear least squares curve fitting. pIC50 values, the negative of the log of the IC50, are calculated by non-linear curve fitting of the compound concentrations and percent of inhibition to the standard pIC50 equation.
Where inhibition was measured in multiple experiments the value in Table 2 is an average. N.T. means not tested.

For a further test, the target named is T2, TGF-β R1 ALK5 (Homo sapiens, UniProt P36897).
T2 construct: purchased Invitrogen PV5837
T2 sequence (P36897 34-503): T1 sequence (P36897 34-503)
The test can be described thus: In vitro inhibition of ALK5 (LanthaScreen activity assay, TR-FRET). It counts as biochemical. How it is done:
Test compounds were screened for TGF-β R1 ALK5 inhibition by use of a LanthaScreen™ activity assay (PV5837 Invitrogen, Invitrogen Corp. Madison, Wis.).
In brief, the assay procedure was as follows:
Solutions of test compounds were prepared in DMSO and diluted two-fold serially.
Assays were incubated for 90 minutes at room temperature and then quenched by the addition of 60 mM EDTA and 8 nM Terbium labeled anti-pSMAD3 Antibody (M4337 from Invitrogen) giving a final concentration of 15 mM EDTA and 2 nM Terbium labeled anti-pSMAD3 Antibody. Phosphorylated peptide product was quantified by measuring an increase in TR-FRET on a BMG LABTECH PHERA star plus. Response is defined as the ratio of Channel A/Channel B. The response of a blank (uninhibited) using vehicle alone is also determined. Enzyme activity was defined as the response of uninhibited enzyme activity minus the response of assays containing no enzyme. The percent inhibition of ALK5 at a given compound concentration is defined as: 100%×[1−(response compound/response blank)]
where response compound is defined as the enzyme activity in the presence of test compound and response blank is defined as the uninhibited enzyme activity. The pIC50 value (negative log of the molar concentration of the compound that produces 50% inhibition) of a test compound is calculated by non-linear least squares curve fitting of the equation: Percent Inhibition=100%/(1+(10−pIC50/10 log [I])).
Where inhibition was measured in multiple experiments the value in Table 1 is an average. N.T. means not tested.
For orientation: Time-resolved FRET reads energy transfer from a long-lived donor to a nearby acceptor.

On to `Cc1cnc(-c2cc(Cl)ccc2F)nc1Nc1ccnc2cn[nH]c12` [Example 1, N-(2-(5-chloro-2-fluorophenyl)-5-methylpyrimidin-4-yl)-1H-pyrazolo[4,3-b]pyridin-7-amine], for which the IC50 against cellular TGF-β R1 ALK5 was 50.1 nM; against TGF-β R1 ALK5, 10 nM.
`CNC(=O)n1ncc2nccc(Nc3nc(-c4cc(Cl)ccc4F)ncc3C)c21` [Example 2, 7-(2-(5-chloro-2-fluorophenyl)-5-methylpyrimidin-4-ylamino)-N-methyl-1H-pyrazolo[4,3-b]pyridine-1-carboxamide]: the figures for the IC50 against cellular TGF-β R1 ALK5 and on TGF-β R1 ALK5 were 79.4 nM and 6.31 nM, respectively.
The like results for `Cc1ccc(F)c(-c2cc(Nc3ccnc4cnn(C(C)C)c34)c(C)cn2)n1` [Example 5, N-(3′-fluoro-5,6′-dimethyl-2,2′-bipyridin-4-yl)-1-isopropyl-1H-pyrazolo[4,3-b]pyridin-7-amine] were, in that order, 200 nM and 39.8 nM.
For `Cc1cccc(-c2cc(Nc3ccnc4cn[nH]c34)c(C)cn2)n1` [Example 6, N-(5,6′-dimethyl-2,2′-bipyridin-4-yl)-1H-pyrazolo[4,3-b]pyridin-7-amine], the figures for the IC50 at cellular TGF-β R1 ALK5 and on TGF-β R1 ALK5 were 25.1 nM and 5.01 nM, respectively.
As for `Cc1ccc(F)c(-c2cc(Nc3ccnc4cn(C[C@H](O)CO)nc34)c(C)cn2)n1` [Example 7, (S)-3-(7-(3′-fluoro-5,6′-dimethyl-2,2′-bipyridin-4-ylamino)-2H-pyrazolo[4,3-b]pyridin-2-yl)propane-1,2-diol], the results for the IC50 at cellular TGF-β R1 ALK5 and against TGF-β R1 ALK5 were 200 nM and 15.8 nM, respectively.
Take `Cc1ccc(F)c(-c2cc(Nc3ccnc4cnn(CCO)c34)c(C)cn2)n1` [Example 10, 2-(7-(3′-fluoro-5,6′-dimethyl-2,2′-bipyridin-4-ylamino)-1H-pyrazolo[4,3-b]pyridin-1-yl)ethanol]: the IC50 against cellular TGF-β R1 ALK5 was 20 nM; at TGF-β R1 ALK5 it was 10 nM.
Turning to `COCCn1cc2ncc(F)c(Nc3cc(-c4cc(Cl)ccc4F)ncc3C)c2n1` [Example 16, N-(2-(5-chloro-2-fluorophenyl)-5-methylpyridin-4-yl)-6-fluoro-2-(2-methoxyethyl)-2H-pyrazolo[4,3-b]pyridin-7-amine], the IC50 at cellular TGF-β R1 ALK5 is 501 nM; at TGF-β R1 ALK5, 31.6 nM.
The matching figures for `Fc1ccc(Cl)cc1-c1cc(Nc2ccnc3cn[nH]c23)ccn1` [Example 17, N-(2-(5-chloro-2-fluorophenyl)pyridin-4-yl)-1H-pyrazolo[4,3-b]pyridin-7-amine]: 50.1 nM and 5.01 nM.
The like results for `CCCn1ncc2nccc(Nc3ccnc(-c4cc(Cl)ccc4F)c3)c21` [Example 18, N-(2-(5-chloro-2-fluorophenyl)pyridin-4-yl)-1-propyl-1H-pyrazolo[4,3-b]pyridin-7-amine] were, in that order, 631 nM and 50.1 nM.
The matching figures for `CCCn1cc2nccc(Nc3ccnc(-c4cc(Cl)ccc4F)c3)c2n1` [Example 19, N-(2-(5-chloro-2-fluorophenyl)pyridin-4-yl)-2-propyl-2H-pyrazolo[4,3-b]pyridin-7-amine]: 398 nM and 50.1 nM.
As to `CC(C)n1ncc2nccc(Nc3ccnc(-c4cc(Cl)ccc4F)c3)c21` [Example 20, N-(2-(5-chloro-2-fluorophenyl)pyridin-4-yl)-1-isopropyl-1H-pyrazolo[4,3-b]pyridin-7-amine], the figures for the IC50 at cellular TGF-β R1 ALK5 and against TGF-β R1 ALK5 were 100 nM and 39.8 nM, respectively.
The like results for `Fc1ccc(Cl)cc1-c1cc(Nc2ccnc3cnn(C4CCOCC4)c23)ccn1` [Example 21, N-(2-(5-chloro-2-fluorophenyl)pyridin-4-yl)-1-(tetrahydro-2H-pyran-4-yl)-1H-pyrazolo[4,3-b]pyridin-7-amine] were, in that order, 794 nM and 100 nM.
Consider `Fc1ccc(Cl)cc1-c1cc(Nc2ccnc3cn(CC4CCNCC4)nc23)ccn1` [Example 27, N-(2-(5-chloro-2-fluorophenyl)pyridin-4-yl)-2-(piperidin-4-ylmethyl)-2H-pyrazolo[4,3-b]pyridin-7-amine], for which the IC50 was 1000 nM against cellular TGF-β R1 ALK5 and 63.1 nM against TGF-β R1 ALK5.
The like results for `CCNC(=O)N1CCC(Cn2cc3nccc(Nc4ccnc(-c5cc(Cl)ccc5F)c4)c3n2)CC1` [Example 28, 4-((7-(2-(5-chloro-2-fluorophenyl)pyridin-4-ylamino)-2H-pyrazolo[4,3-b]pyridin-2-yl)methyl)-N-ethylpiperidine-1-carboxamide] were, in that order, 2510 nM and 2510 nM.
With `CCNC(=O)n1ncc2nccc(Nc3ccnc(-c4cc(Cl)ccc4F)c3)c21` [Example 29, 7-(2-(5-chloro-2-fluorophenyl)pyridin-4-ylamino)-N-ethyl-1H-pyrazolo[4,3-b]pyridine-1-carboxamide], the IC50 against cellular TGF-β R1 ALK5 and against TGF-β R1 ALK5 was 100 nM in each case.
As for `CNC(=O)Cn1ncc2nccc(Nc3ccnc(-c4cc(Cl)ccc4F)c3)c21` [Example 31, 2-(7-(2-(5-chloro-2-fluorophenyl)pyridin-4-ylamino)-1H-pyrazolo[4,3-b]pyridin-1-yl)-N-methylacetamide], the IC50 at cellular TGF-β R1 ALK5 and against TGF-β R1 ALK5 was 200 nM throughout.
On to `CNC(=O)n1ncc2nccc(Nc3ccnc(-c4cc(Cl)ccc4F)c3)c21` [Example 32, 7-(2-(5-chloro-2-fluorophenyl)pyridin-4-ylamino)-N-methyl-1H-pyrazolo[4,3-b]pyridine-1-carboxamide], for which the IC50 against cellular TGF-β R1 ALK5 and against TGF-β R1 ALK5 was 50.1 nM each time.
With `COCCCn1ncc2nccc(Nc3ccnc(-c4cc(Cl)ccc4F)c3)c21` [Example 33, N-(2-(5-chloro-2-fluorophenyl)pyridin-4-yl)-1-(3-methoxypropyl)-1H-pyrazolo[4,3-b]pyridin-7-amine], the IC50 on cellular TGF-β R1 ALK5 and against TGF-β R1 ALK5 was 200 nM throughout.
As to `OC[C@@H](O)Cn1cc2nccc(Nc3ccnc(-c4cc(Cl)ccc4F)c3)c2n1` [Example 47, (S)-3-(7-(2-(5-chloro-2-fluorophenyl)pyridin-4-ylamino)-2H-pyrazolo[4,3-b]pyridin-2-yl)propane-1,2-diol], the IC50 on cellular TGF-β R1 ALK5 is 398 nM.
As to `Cc1ccc(F)c(-c2cc(Nc3ccnc4cnn(CC(N)=O)c34)ccn2)n1` [Example 85, 2-(7-(3′-fluoro-6′-methyl-2,2′-bipyridin-4-ylamino)-1H-pyrazolo[4,3-b]pyridin-1-yl)acetamide], on TGF-β R1 ALK5, the IC50 was 25.1 nM.
For `CNC(=O)Cn1ncc2nccc(Nc3cc(-c4cc(F)ccc4F)ncc3C)c21` [Example 159, 2-(7-(2-(2,5-difluorophenyl)-5-methylpyridin-4-ylamino)-1H-pyrazolo[4,3-b]pyridin-1-yl)-N-methylacetamide], on TGF-β R1 ALK5, the IC50 was 39.8 nM.
